The target of one data set is MC1 receptor (Homo sapiens, UniProt Q01726). The data set can be described thus: biochemical. The protocol: Assay (IV)—Melanocortin Receptor 1 (MC1) Binding Assay
The MC1 receptor binding assay was performed on BHK cell membranes stably expressing the MC1 receptor. The assay was performed in a total volume of 250 μl: 25 μl of ^125NDP-α-MSH (22 pM in final concentration), 25 μl of test compound/control and 200 μl of cell membrane (25 μg/ml). Test compounds were dissolved in DMSO. Radioactively labeled ligand, membranes and test compounds were diluted in buffer: 25 mM HEPES, pH 7.4, 0.1 mM CaCl2, 1 mM MgSO4, 1 mM EDTA, 0.1% HSA and 0.005% Tween™ 20. Alternatively, HSA may be substituted with ovalbumin. The samples were incubated at 30° C. for 90 min. in Costar round-bottom microtiter plates. Incubation was terminated by filtration on a Packard harvester filtermate. Rapid filtration through Packard Unifilter-96 GF/B filters pre-treated with polyetylenimine (PerkinElmer 6005277). The filters were washed with ice-cold 0.9% NaCl 8-10 times. The plates were air-dried at app. 55° C. for 30 min, and 50 μl Microscint 0 (Packard, cat. No. 6013616) was added to each well. The plates were counted in a Topcounter (1 min/well).
The data were analysed by non-linear regression analysis of binding curves, using the Windows™ program GraphPad™ Prism (GraphPad Software, USA).

A further data set can be described thus: physchem. How it is done:
From a stock solution in vehicle, either H2O or 10 mM phosphate, containing 1 mg (as weighed) compound per ml, 8-11 aliquots are withdrawn and pH-adjusted individually with HCl/NaOH, to cover the whole pH range.

Values after ≈ are worked out from the molar mass of the structure shown. Positions of bridges follow the written chain, without caps; N, C: chain ends. Non-standard residues stand in square brackets, D forms with d. Residues, ends and D or L forms follow the SMILES beside them. Groups on a side chain read outwards from the residue. *: point of attachment. Palmitoyl(16-(5-tetrazolyl)) = O=C(CCCCCCCCCCCCCCCc1nnn[nH]1)*; Lys(CH2CO2H)2 = N[C@@H](CCCCN(CC(=O)O)CC(=O)O)C(=O)O; C18 diacid = O=C(O)CCCCCCCCCCCCCCCCC(=O)*; C16 diacid = O=C(O)CCCCCCCCCCCCCCC(=O)*; C14 diacid = O=C(O)CCCCCCCCCCCCC(=O)*; NTA = O=C(O)CN(CC(=O)O)CC(=O)*; hCys = N[C@@H](CCS)C(=O)O; Dap = NC[C@H](N)C(=O)O; AEEA = NCCOCCOCC(=O)O

As usually defined, the Ki is the equilibrium dissociation constant of an inhibitor or competing ligand from its target. Broadly, the solubility is the dissolved amount per volume that the medium holds. Read a high solubility as much dissolved substance.

MC1 receptor, sequence (Q01726 whole entry): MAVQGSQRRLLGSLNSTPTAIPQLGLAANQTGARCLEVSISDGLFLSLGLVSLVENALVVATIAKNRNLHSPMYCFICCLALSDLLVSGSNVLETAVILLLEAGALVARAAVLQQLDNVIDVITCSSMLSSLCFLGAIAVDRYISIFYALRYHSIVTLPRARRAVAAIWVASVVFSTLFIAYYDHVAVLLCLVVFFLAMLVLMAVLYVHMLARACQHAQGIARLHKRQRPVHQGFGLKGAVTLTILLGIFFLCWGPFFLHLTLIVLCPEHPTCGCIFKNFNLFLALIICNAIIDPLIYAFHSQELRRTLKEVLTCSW

As for `CC(=O)N[C@H]1CCSSC[C@@H](C(=O)N2CCC[C@H]2C(=O)N2CCC[C@H]2C(=O)N[C@@H](CCCCN)C(=O)N[C@@H](CC(=O)O)C(=O)N[C@@H](CNC(=O)CN(CC(=O)O)CC(=O)O)C(=O)N[C@@H](CCCCNC(=O)COCCOCCNC(=O)CCCCCCCCCCCCCCCc2nnn[nH]2)C(=O)O)NC(=O)[C@H](Cc2c[nH]c3ccccc23)NC(=O)[C@H](CCCNC(=N)N)NC(=O)[C@@H](Cc2ccccc2)NC(=O)[C@H](Cc2c[nH]cn2)NC1=O` [Example 4, Ac-c[homoCys-His-D-Phe-Arg-Trp-Cys]-Pro-Pro-Lys-Asp-Dap(BCMA)-Lys[(2-{2-[16-(tetrazol-5-yl)hexadecanoylamino]ethoxy}ethoxy)acetyl]-OH] (Ac-[hCys]H[dF]RWCPPKD[Dap](NTA)K([AEEA-Palmitoyl(16-(5-tetrazolyl))])-OH; disulfide 1-6), at MC1 receptor, the Ki was above 10 µM.

Consider `CC(=O)N[C@H]1CSSC[C@@H](C(=O)N2CCC[C@H]2C(=O)N2CCC[C@H]2C(=O)N[C@@H](CCCCN)C(=O)N[C@@H](CCC(=O)O)C(=O)N[C@@H](CCCCN(CC(=O)O)CC(=O)O)C(=O)N[C@@H](CCCCNC(=O)COCCOCCNC(=O)CCCCCCCCCCCCCCC(=O)O)C(N)=O)NC(=O)CNC(=O)[C@H](Cc2c[nH]c3ccccc23)NC(=O)[C@H](CCCNC(=N)N)NC(=O)[C@@H](Cc2ccccc2)NC(=O)[C@H](Cc2c[nH]cn2)NC(=O)[C@H](CCC(=O)O)NC1=O` [Example 59, Ac-c[Cys-Glu-His-D-Phe-Arg-Trp-Gly-Cys]-Pro-Pro-Lys-Glu-Lys(biscarboxymethyl)-Lys({2-[2-(15-carboxypentadecanoylamino)ethoxy]ethoxy}acetyl)-NH2] (Ac-CEH[dF]RWGCPPKE[Lys(CH2CO2H)2]K([AEEA-C16 diacid])-NH2; disulfide 1-8), for which, on MC1 receptor, the Ki was above 10 µM.

With `CC(=O)N[C@H]1CCSSC[C@@H](C(=O)N[C@@H](CO)C(=O)N2CCC[C@H]2C(=O)N[C@@H](CCCCN)C(=O)N[C@@H](CCC(=O)O)C(=O)N[C@@H](CCCCN(CC(=O)O)CC(=O)O)C(=O)N[C@@H](CCCCNC(=O)COCCOCCNC(=O)CCCCCCCCCCCCCCC(=O)O)C(N)=O)NC(=O)[C@H](Cc2c[nH]c3ccccc23)NC(=O)[C@H](CCCNC(=N)N)NC(=O)[C@@H](Cc2ccccc2)NC(=O)[C@H](Cc2c[nH]cn2)NC1=O` [Example 60, Ac-c[homoCys-His-D-Phe-Arg-Trp-Cys]-Ser-Pro-Lys-Glu-Lys(biscarboxymethyl)-Lys({2-[2-(15-carboxypentadecanoylamino)ethoxy]ethoxy}acetyl)-NH2] (Ac-[hCys]H[dF]RWCSPKE[Lys(CH2CO2H)2]K([AEEA-C16 diacid])-NH2; disulfide 1-6), the solubility in the data set “physchem” (pH 4, Solubility Conc.) came to 424 µM (≈ 904 µg/mL); in the data set “physchem” (pH 5.4, Solubility Conc.) it was 126 µM (≈ 269 µg/mL); in the data set “physchem” (pH 6, Solubility Conc.), 133 µM (≈ 283 µg/mL); in “physchem” (pH 6.2, Solubility Conc.), 171 µM (≈ 364 µg/mL); in the data set “physchem” (pH 6.4, Solubility Conc.) it was 415 µM (≈ 885 µg/mL); in “physchem” (pH 6.8, Solubility Conc.), 457 µM (≈ 974 µg/mL). Further, the solubility in “physchem” (pH 7.3, Solubility Conc.) turned out to be 459 µM (≈ 978 µg/mL); in “physchem” (pH 7.6, Solubility Conc.), 456 µM (≈ 972 µg/mL); in “physchem” (pH 7.8, Solubility Conc.), 461 µM (≈ 983 µg/mL); in “physchem” (pH 7.9, Solubility Conc.), 450 µM (≈ 959 µg/mL).

Regarding `CC(=O)N[C@H]1CCSSC[C@@H](C(=O)N2CCC[C@H]2C(=O)N2CCC[C@H]2C(=O)N[C@@H](CCCCN)C(=O)N[C@@H](CC(=O)O)C(=O)N[C@@H](CNC(=O)CN(CC(=O)O)CC(=O)O)C(=O)N[C@@H](CCCCNC(=O)COCCOCCNC(=O)CCCCCCCCCCCCCCCc2nnn[nH]2)C(N)=O)NC(=O)[C@H](Cc2c[nH]c3ccccc23)NC(=O)[C@H](CCCNC(=N)N)NC(=O)[C@@H](Cc2ccccc2)NC(=O)[C@H](Cc2c[nH]cn2)NC1=O` [Example 61, Ac-c[homoCys-His-D-Phe-Arg-Trp-Cys]-Pro-Pro-Lys-Asp-Dap(BCMA)-Lys[(2-{2-[16-(tetrazol-5-yl)hexadecanoylamino]ethoxy}ethoxy)acetyl]-NH2] (Ac-[hCys]H[dF]RWCPPKD[Dap](NTA)K([AEEA-Palmitoyl(16-(5-tetrazolyl))])-NH2; disulfide 1-6), the solubility in the data set “physchem” (pH 3.3, Solubility Conc.) came to 623 µM (≈ 1360 µg/mL); in “physchem” (pH 4.4, Solubility Conc.), 575 µM (≈ 1250 µg/mL); in “physchem” (pH 4.8, Solubility Conc.) it was 584 µM (≈ 1270 µg/mL); in the data set “physchem” (pH 5.3, Solubility Conc.), 32 µM (≈ 69.8 µg/mL); in “physchem” (pH 6.3, Solubility Conc.) it was 26 µM (≈ 56.7 µg/mL); in the data set “physchem” (pH 6.8, Solubility Conc.) it was 46 µM (≈ 100 µg/mL). Moreover, the solubility in “physchem” (pH 7.1, Solubility Conc.) came out at 256 µM (≈ 558 µg/mL); in “physchem” (pH 7.3, Solubility Conc.) it was 630 µM (≈ 1370 µg/mL); in “physchem” (pH 7.4, Solubility Conc.), 713 µM (≈ 1550 µg/mL); in the data set “physchem” (pH 7.7, Solubility Conc.), 805 µM (≈ 1760 µg/mL).

Regarding `CC(=O)N[C@H]1CCSSC[C@@H](C(=O)N[C@@H](CO)C(=O)N2CCC[C@H]2C(=O)N[C@@H](Cc2c[nH]cn2)C(=O)N[C@@H](CCC(=O)O)C(=O)N[C@@H](CCCCN(CC(=O)O)CC(=O)O)C(=O)N[C@@H](CCCCNC(=O)COCCOCCNC(=O)CCCCCCCCCCCCCCCCC(=O)O)C(N)=O)NC(=O)[C@H](Cc2c[nH]c3ccccc23)NC(=O)[C@H](CCCNC(=N)N)NC(=O)[C@@H](Cc2ccccc2)NC(=O)[C@H](Cc2c[nH]cn2)NC1=O` [Example 62, Ac-c[homoCys-His-D-Phe-Arg-Trp-Cys]-Ser-Pro-His-Glu-Lys(biscarboxymethyl)-Lys({2-[2-(17-carboxyheptadecanoylamino)ethoxy]ethoxy}acetyl)-NH2] (Ac-[hCys]H[dF]RWCSPHE[Lys(CH2CO2H)2]K([AEEA-C18 diacid])-NH2; disulfide 1-6), the solubility stood at 235 µM (≈ 510 µg/mL) in “physchem” (pH 3.4, Solubility Conc.); 15 µM (≈ 32.5 µg/mL) in the data set “physchem” (pH 5, Solubility Conc.); 41 µM (≈ 88.9 µg/mL) in the data set “physchem” (pH 6.7, Solubility Conc.); 82 µM (≈ 178 µg/mL) in the data set “physchem” (pH 6.9, Solubility Conc.); 42 µM (≈ 91.1 µg/mL) in “physchem” (pH 7, Solubility Conc.); 241 µM (≈ 523 µg/mL) in the data set “physchem” (pH 7.3, Solubility Conc.). In addition, the solubility in the data set “physchem” (pH 7.4, Solubility Conc.) is 243 µM (≈ 527 µg/mL); in “physchem” (pH 7.7, Solubility Conc.) it was 251 µM (≈ 544 µg/mL); in the data set “physchem” (pH 7.9, Solubility Conc.) it was 245 µM (≈ 531 µg/mL); in “physchem” (pH 8, Solubility Conc.), 233 µM (≈ 505 µg/mL).

With `CC(=O)N[C@H]1CCSSC[C@@H](C(=O)N2CCC[C@H]2C(=O)N2CCC[C@H]2C(=O)N[C@@H](CCCCN)C(=O)N[C@@H](CC(=O)O)C(=O)N[C@@H](CCCCNC(=O)CN(CC(=O)O)CC(=O)O)C(=O)N[C@@H](CCCCNC(=O)COCCOCCNC(=O)CCCCCCCCCCCCCCCc2nnn[nH]2)C(N)=O)NC(=O)[C@H](Cc2c[nH]c3ccccc23)NC(=O)[C@H](CCCNC(=N)N)NC(=O)[C@@H](Cc2ccccc2)NC(=O)[C@H](Cc2c[nH]cn2)NC1=O` [Example 65, Ac-c[homoCys-His-D-Phe-Arg-Trp-Cys]-Pro-Pro-Lys-Asp-Lys(BCMA)-Lys[(2-{2-[16-(tetrazol-5-yl)hexadecanoylamino]ethoxy}ethoxy)acetyl]-NH2] (Ac-[hCys]H[dF]RWCPPKDK(NTA)K([AEEA-Palmitoyl(16-(5-tetrazolyl))])-NH2; disulfide 1-6), the Ki at MC1 receptor is above 10 µM.

For the compound `CC(=O)N[C@H]1CSSC[C@@H](C(=O)N2CCC[C@H]2C(=O)N2CCC[C@H]2C(=O)N[C@@H](CCCCN)C(=O)N[C@@H](CCC(=O)O)C(=O)N[C@@H](CCC(=O)O)C(=O)N[C@@H](CCCCNC(=O)COCCOCCNC(=O)CCCCCCCCCCCCCCC(=O)O)C(N)=O)NC(=O)CNC(=O)[C@H](Cc2c[nH]c3ccccc23)NC(=O)[C@H](CCCNC(=N)N)NC(=O)[C@@H](Cc2ccccc2)NC(=O)[C@H](Cc2c[nH]cn2)NC(=O)[C@H](CCC(=O)O)NC1=O` [Example 68, Ac-c[Cys-Glu-His-D-Phe-Arg-Trp-Gly-Cys]-Pro-Pro-Lys-Glu-Glu-Lys({2-[2-(15-carboxypentadecanoylamino)ethoxy]ethoxy}acetyl)-NH2] (Ac-CEH[dF]RWGCPPKEEK([AEEA-C16 diacid])-NH2; disulfide 1-8), the solubility came to 167 µM (≈ 367 µg/mL) in “physchem” (pH 4, Solubility Conc.); 87 µM (≈ 191 µg/mL) in the data set “physchem” (pH 5.1, Solubility Conc.); 102 µM (≈ 224 µg/mL) in the data set “physchem” (pH 5.8, Solubility Conc.); 164 µM (≈ 361 µg/mL) in “physchem” (pH 6.2, Solubility Conc.); 182 µM (≈ 400 µg/mL) in “physchem” (pH 6.9, Solubility Conc.); 181 µM (≈ 398 µg/mL) in the data set “physchem” (pH 7.3, Solubility Conc.). Further, the solubility is 184 µM (≈ 405 µg/mL) in “physchem” (pH 7.5, Solubility Conc.); 188 µM (≈ 413 µg/mL) in “physchem” (pH 7.9, Solubility Conc.); 183 µM (≈ 402 µg/mL) in the data set “physchem” (pH 8, Solubility Conc.).

On to `CC(=O)N[C@H]1CCSSC[C@@H](C(=O)N2CCC[C@H]2C(=O)N2CCC[C@H]2C(=O)N[C@@H](CCCCN)C(=O)N[C@@H](CC(=O)O)C(=O)N[C@@H](CNC(=O)CN(CC(=O)O)CC(=O)O)C(=O)N[C@@H](CCCCNC(=O)COCCOCCNC(=O)CCCCCCCCCCCCC(=O)O)C(N)=O)NC(=O)[C@H](Cc2c[nH]c3ccccc23)NC(=O)[C@H](CCCNC(=N)N)NC(=O)[C@@H](Cc2ccccc2)NC(=O)[C@H](Cc2c[nH]cn2)NC1=O` [Example 69, Ac-c[homoCys-His-D-Phe-Arg-Trp-Cys]-Pro-Pro-Lys-Asp-Dap(BCMA)-Lys({2-[2-(13-carboxytridecanoylamino)ethoxy]ethoxy}acetyl)-NH2] (Ac-[hCys]H[dF]RWCPPKD[Dap](NTA)K([AEEA-C14 diacid])-NH2; disulfide 1-6), for which the Ki on MC1 receptor is above 10 µM.
